Laboratory results published in ChEMBL document CHEMBL4665871, “Small-molecule active pharmaceutical ingredients of approved cancer therapeutics inhibit human aspartate/asparagine-β-hydroxylase” (Bioorg Med Chem, 2020).

Tests used:
[1] = target: T1, Aspartyl/asparaginyl beta-hydroxylase (Homo sapiens, UniProt Q12797); assay: Inhibition of N-His6-tagged human AspH (315-755) expressed in Escherichia coli BL21 (DE3) using 1 uM hFX-CP as substrate mixture with high 200 uM 2OG, 100 uM L-ascorbic acid and 2 uM FAS incubated for 35 mins by MS analysis
T1 sequence (Q12797 whole entry): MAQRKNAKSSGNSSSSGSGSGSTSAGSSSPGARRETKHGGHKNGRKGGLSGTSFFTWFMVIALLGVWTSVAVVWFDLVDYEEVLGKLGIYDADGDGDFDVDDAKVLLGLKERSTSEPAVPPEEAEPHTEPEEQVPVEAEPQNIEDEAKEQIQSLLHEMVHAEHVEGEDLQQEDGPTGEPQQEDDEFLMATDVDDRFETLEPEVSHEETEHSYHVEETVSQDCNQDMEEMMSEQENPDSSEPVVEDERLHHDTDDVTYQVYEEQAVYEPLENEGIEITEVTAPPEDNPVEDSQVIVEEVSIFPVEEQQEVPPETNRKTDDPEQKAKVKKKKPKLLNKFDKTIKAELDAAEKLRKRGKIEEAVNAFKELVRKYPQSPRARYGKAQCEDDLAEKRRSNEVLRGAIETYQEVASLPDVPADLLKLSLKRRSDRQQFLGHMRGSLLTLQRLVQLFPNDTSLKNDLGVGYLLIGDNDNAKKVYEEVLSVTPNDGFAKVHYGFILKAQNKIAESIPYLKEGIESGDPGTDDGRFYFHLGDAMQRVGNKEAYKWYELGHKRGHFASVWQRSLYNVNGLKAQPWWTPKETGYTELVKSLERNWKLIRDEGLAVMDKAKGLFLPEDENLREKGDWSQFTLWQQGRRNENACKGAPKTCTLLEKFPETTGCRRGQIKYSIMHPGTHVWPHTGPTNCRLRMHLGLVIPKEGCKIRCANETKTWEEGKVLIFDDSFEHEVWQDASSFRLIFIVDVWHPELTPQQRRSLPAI

[2] = target: T1, Aspartyl/asparaginyl beta-hydroxylase; assay: Inhibition of N-His6-tagged human AspH (315-755) expressed in Escherichia coli BL21 (DE3) using 1 uM hFX-CP as substrate mixture with 3 uM 2OG, 100 uM L-ascorbic acid and high 20 uM FAS incubated for 35 mins by MS analysis
[3] = target: T1, Aspartyl/asparaginyl beta-hydroxylase; assay: Inhibition of N-His6-tagged human AspH (315-755) expressed in Escherichia coli BL21 (DE3) using high 10 uM hFX-CP as substrate mixture with 10 uM 2OG, 100 uM L-ascorbic acid and 2 uM FAS incubated for 35 mins by MS analysis

- IC50 [1]: 12.2 µM
- IC50 [2]: Not Active
- IC50 [3]: 3.39 µM
SMILES: CO[C@H](C(=O)[C@@H](O)[C@@H](C)O)[C@@H]1Cc2cc3cc(O[C@H]4C[C@@H](O[C@H]5C[C@@H](O)[C@H](O)[C@@H](C)O5)[C@H](O)[C@@H](C)O4)c(C)c(O)c3c(O)c2C(=O)[C@H]1O[C@H]1C[C@@H](O[C@H]2C[C@@H](O[C@H]3C[C@](C)(O)[C@H](O)[C@@H](C)O3)[C@@H](O)[C@@H](C)O2)[C@H](O)[C@@H](C)O1
